Source: the supplement of paper PMC10307832

Legend:
Assay in all cases: relative viability (nuclei count vs DMSO), 5 days (fraction); higher = more cells survive
Mirin + Bortezomib = compound: N=C1NC(=O)/C(=C/c2ccc(O)cc2)S1 [Mirin] + CC(C)C[C@H](NC(=O)[C@H](Cc1ccccc1)NC(=O)c1cnccn1)B(O)O [Bortezomib] (partner 0.002 µM)
Method in brief: (§1)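 Relative viability was taken as the ratio of nuclei in treated wells to nuclei in vehicle wells. Lung cancer cell lines in 1536-well plates received compounds by pin tool one day after seeding, either one drug alone or a fixed anchor-drug dose plus five library-drug doses (not always all listed) in √10 steps. Nuclei were counted on 4× images after 5 days of treatment, and values are medians of duplicate plates.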

[1] = compound: CCC1=CN=CN=C1N2CCN(CC2)CC3=NC4=C(N3)C=C(C=C4)C(F)(F)F + N=C(N)NC(=N)NCCc1ccccc1 [Phenformin] (partner 250 µM)
Method in brief: as §1

[2] = compound: CCC1=CN=CN=C1N2CCN(CC2)CC3=NC4=C(N3)C=C(C=C4)C(F)(F)F + CC(=O)c1c(C)c2cnc(Nc3ccc(N4CCNCC4)cn3)nc2n(C2CCCC2)c1=O [Palbociclib] (partner 0.5 µM)
Method in brief: as §1

[3] = compound: CCn1c(-c2nonc2N)nc2cnc(Oc3cccc(NC(=O)c4ccc(OCCN5CCOCC5)cc4)c3)cc21 + C[C@@H](Oc1cc(-c2cnn(C3CCNCC3)c2)cnc1N)c1c(Cl)ccc(F)c1Cl [Crizotinib] (partner 1 µM)
Method in brief: as §1

LCLC-97TM1
relative viability (Mirin + Bortezomib; first compound 0.25 µM): 0.589
relative viability (Mirin + Bortezomib; first compound 2.5 µM): 0.582
relative viability (Mirin + Bortezomib; first compound 7.906 µM): 0.278
relative viability (Mirin + Bortezomib; first compound 25 µM): 0.868
relative viability ([1]; first compound 0.04 µM): 0.477
relative viability ([1]; first compound 0.1265 µM): 0.406
relative viability ([1]; first compound 0.4 µM): 0.412
relative viability ([1]; first compound 1.265 µM): 0.478
relative viability ([1]; first compound 4 µM): 0.498
relative viability ([2]; first compound 0.04 µM): 0.196
relative viability ([2]; first compound 0.1265 µM): 0.2
relative viability ([2]; first compound 0.4 µM): 0.228
relative viability ([2]; first compound 1.265 µM): 0.282
relative viability ([2]; first compound 4 µM): 0.196
relative viability ([3]; first compound 0.04 µM): 0.278
relative viability ([3]; first compound 0.1265 µM): 0.524
relative viability ([3]; first compound 1.265 µM): 0.427
relative viability ([3]; first compound 4 µM): 0.596

NCI-H322M
relative viability (Mirin + Bortezomib; first compound 0.25 µM): 1.22
relative viability (Mirin + Bortezomib; first compound 0.7906 µM): 1.29
relative viability (Mirin + Bortezomib; first compound 2.5 µM): 1.41
relative viability (Mirin + Bortezomib; first compound 7.906 µM): 1.42
relative viability (Mirin + Bortezomib; first compound 25 µM): 1.24
relative viability ([1]; first compound 0.04 µM): 0.874
relative viability ([1]; first compound 0.1265 µM): 0.761
relative viability ([1]; first compound 0.4 µM): 0.772
relative viability ([1]; first compound 1.265 µM): 0.632
relative viability ([1]; first compound 4 µM): 0.799
relative viability ([2]; first compound 0.04 µM): 0.455
relative viability ([2]; first compound 0.1265 µM): 0.452
relative viability ([2]; first compound 0.4 µM): 0.514
relative viability ([2]; first compound 1.265 µM): 0.489
relative viability ([2]; first compound 4 µM): 0.521
relative viability ([3]; first compound 0.04 µM): 1.28
relative viability ([3]; first compound 0.1265 µM): 0.976
relative viability ([3]; first compound 0.4 µM): 0.96
relative viability ([3]; first compound 1.265 µM): 0.953
relative viability ([3]; first compound 4 µM): 0.922

PC-3 [JPC-3]
relative viability (Mirin + Bortezomib; first compound 0.25 µM): 0.768
relative viability (Mirin + Bortezomib; first compound 0.7906 µM): 0.889
relative viability (Mirin + Bortezomib; first compound 2.5 µM): 0.841
relative viability (Mirin + Bortezomib; first compound 7.906 µM): 0.941
relative viability (Mirin + Bortezomib; first compound 25 µM): 0.967
relative viability ([1]; first compound 0.04 µM): 0.456
relative viability ([1]; first compound 0.1265 µM): 0.456
relative viability ([1]; first compound 0.4 µM): 0.457
relative viability ([1]; first compound 1.265 µM): 0.505
relative viability ([1]; first compound 4 µM): 0.479
relative viability ([2]; first compound 0.1265 µM): 0.53
relative viability ([2]; first compound 0.4 µM): 0.56
relative viability ([2]; first compound 1.265 µM): 0.565
relative viability ([2]; first compound 4 µM): 0.543
relative viability ([3]; first compound 0.04 µM): 0.961
relative viability ([3]; first compound 0.1265 µM): 0.96
relative viability ([3]; first compound 0.4 µM): 1.04
relative viability ([3]; first compound 1.265 µM): 0.967
relative viability ([3]; first compound 4 µM): 0.939

EPLC-272H
relative viability (Mirin + Bortezomib; first compound 0.25 µM): 0.962
relative viability (Mirin + Bortezomib; first compound 2.5 µM): 1.04
relative viability (Mirin + Bortezomib; first compound 7.906 µM): 0.714
relative viability (Mirin + Bortezomib; first compound 25 µM): 0.826
relative viability ([1]; first compound 0.04 µM): 0.308
relative viability ([1]; first compound 0.1265 µM): 0.333
relative viability ([1]; first compound 0.4 µM): 0.299
relative viability ([1]; first compound 1.265 µM): 0.325
relative viability ([1]; first compound 4 µM): 0.337
relative viability ([2]; first compound 0.04 µM): 0.338
relative viability ([2]; first compound 0.1265 µM): 0.302
relative viability ([2]; first compound 0.4 µM): 0.324
relative viability ([2]; first compound 1.265 µM): 0.318
relative viability ([2]; first compound 4 µM): 0.327
relative viability ([3]; first compound 0.04 µM): 1.24
relative viability ([3]; first compound 0.1265 µM): 1.12
relative viability ([3]; first compound 0.4 µM): 0.83
relative viability ([3]; first compound 1.265 µM): 0.871
relative viability ([3]; first compound 4 µM): 0.932

A-427
relative viability (Mirin + Bortezomib; first compound 0.25 µM): 0.97
relative viability (Mirin + Bortezomib; first compound 2.5 µM): 1.01
relative viability (Mirin + Bortezomib; first compound 7.906 µM): 1.03
relative viability (Mirin + Bortezomib; first compound 25 µM): 1.02
relative viability ([1]; first compound 0.04 µM): 0.3
relative viability ([1]; first compound 0.1265 µM): 0.292
relative viability ([1]; first compound 0.4 µM): 0.225
relative viability ([1]; first compound 1.265 µM): 0.234
relative viability ([1]; first compound 4 µM): 0.224
relative viability ([2]; first compound 0.04 µM): 0.451
relative viability ([2]; first compound 0.1265 µM): 0.489
relative viability ([2]; first compound 0.4 µM): 0.499
relative viability ([2]; first compound 1.265 µM): 0.479
relative viability ([2]; first compound 4 µM): 0.475
relative viability ([3]; first compound 0.04 µM): 0.966
relative viability ([3]; first compound 0.1265 µM): 1.08
relative viability ([3]; first compound 0.4 µM): 0.846
relative viability ([3]; first compound 1.265 µM): 0.998
relative viability ([3]; first compound 4 µM): 0.879
